The results in this text go back to US20130261133A1, “Therapeutic Compounds for Protozoal and Microbial Infections and Cancer” (THE UNIVERSITY OF MONTANA, priority 2012, published 2013).

The test system of series [1] is Leishmania donovani. Briefly: Antileishmanial assay, Leishmania in infected macrophages (L. donovani). The settings on record: Leishmania donovani, Macrophage, read-out: IC50 Leishmania in infected macrophages.
The test system of series [2] is leishmaniasis (LV82 PM infection), liver parasitemia. Briefly: In vivo efficacy: liver parasitemia in BALB/c mice with leishmaniasis. The following applies: 10 mg/kg i.p. Here is the method: The following protocols were used to prepare the various treatments described in Table 2: • a. Miltefosine ([…] stock solution in sterile PBS): 7.5 mg miltefosine was weighed and put in a eppendorf tube, then 0.75 mL of sterile PBS was added. After vortexing, a clear solution was formed. Make 1 mg/mL solution daily by diluting 100 μL of 10 mg/mL miltefosine solution in 900 μL sterile PBS. • b. Vehicle control: 5% (v/v) DMSO, 50% (v/v) PEG 400, 10% (v/v) Ethanol, and 35% (v/v) distilled water. • c. Compound 47 (2 mg/mL solution of compound 47 in PEG 400/Ethanol vehicle): […]. Dilute the above solution 1:20 with PEG 400/EtOH/water daily. After vortexing and warming up at 37° C. for 30 min., a clear solution formed. • d. Compound 48 (2 mg/mL solution of compound 48 in PEG 400/Ethanol vehicle): 6.8 mg of compound 48 was dissolved in 0.17 mL of DMSO to make a 40 mg/mL stock solution. After vortexing, a yellowish-brown solution was formed. Diluted the above solution 1:20 with PEG 400/EtOH/water daily. After vortexing a clear solution formed. • e. Compound 50 (2 mg/mL solution of compound 50 in PEG 400/Ethanol vehicle): 8.4 mg of compound 50 was dissolved in 0.21 mL of DMSO to make a 40 mg/mL stock solution. After vortexing, a dark yellowish-brown solution was formed. Diluted the above solution 1:20 with PEG 400/EtOH/water. After vortexing a clear solution formed.
(§1) Compounds 47, 48, and 50 were then evaluated in animal studies with BALB/c mice with leishmaniasis. Compounds were delivered via i.p. injection at 10 mg/kg, with untreated, vehicle, and miltefosine controls as described in Table 2. […] Miltefosine, the only oral treatment currently available to treat leishmaniasis in humans, was also evaluated in the BALB/c mice for comparison purposes.

Series [3] in a line: Body and organ weights of infected, treated BALB/c mice. The series is classed as in vivo. The method, then:
as §1

pIC50: −log10 of the molar value. Several values for one entry are separate records, joined by “and”; a condition that tells them apart may be missing. Identical values can stand only once.

As to `C=C[C@@H](C#CC#CC(CCCCCCCCC)NC(=O)c1ccc(Cl)cc1)OC(C)=O` (stereo in doubt) [Compound 39, (3S,8R)-8-(4-chlorobenzamido)heptadeca-1-en-4,6-diyn-3-yl acetate], the pIC50 (commonly the negative decadic logarithm of the IC50, by convention in mol/L) in series [1] was 6.95.

With `C=C[C@@H](C#CC#CC(CCCCCCCCC)NC(=O)c1ccc(Cl)c(Cl)c1)OC(C)=O` (stereo in doubt) [Compound 40, (3S,8R)-8-(3,4-dichlorobenzamido)heptadeca-1-en-4,6-diyn-3-yl acetate], the pIC50 in series [1] is 6.37.

For `C=C[C@@H](C#CC#CC(CCCCCCCCC)NC(=O)c1ccc(C)cc1)OC(C)=O` (stereo in doubt) [Compound 41, (3S,8R)-8-(4-methylbenzamido)heptadeca-1-en-4,6-diyn-3-yl acetate], the pIC50 in series [1] is 6.90.

In the case of `C=C[C@@H](C#CC#CC(CCCCCCCCC)NC(=O)c1ccc(OC)cc1)OC(C)=O` (stereo in doubt) [Compound 42, (3S,8R)-8-(4-methoxybenzamido)heptadeca-1-en-4,6-diyn-3-yl acetate], the pIC50 in series [1] was 6.78.

Consider `C=C[C@H](O)C#CC#C[C@@H](CCCCCCCCC)NCCCC` [Compound 55, (3S,8R)-8-(butylamino)heptadeca-1-en-4,6-diyn-3-ol], for which the pIC50 in series [1] was 8.52.

Take `C=C[C@H](O)C#CC#C[C@@H](CCCCCCCCC)NC(=O)c1ccccc1` [Compound 56, N-((3S,8R)-3-hydroxyheptadeca-1-en-4,6-diyn-8-yl)benzamide]: the pIC50 in series [1] was 8.30.

Take `C=C[C@H](O)C#CC#C[C@@H](CCCCCCCCC)NC(=O)OCC` [Compound 57, ethyl((3S,8R)-3-hydroxyheptadeca-1-en-4,6-diyn-8-yl)carbamate]: in series [1], the pIC50 was 8.00.

`C=C[C@H](O)C#CC#C[C@@H](CCCCCCCCC)OC` [Compound 58, (3S,8R)-8-methoxyheptadeca-1-en-4,6-diyn-3-ol]: in series [1], the pIC50 was 7.96.

Regarding `C=C[C@H](O)C#CC#C[C@@H](CCCCCCCCC)NC(C)=O` [Compound 59, N-((3S,8R)-3-hydroxyheptadeca-1-en-4,6-diyn-8-yl)acetamide], the pIC50 in series [1] was 7.74.

Take `C=C[C@@H](C#CC#C[C@@H](CCCCCCCCC)NC(=O)c1cc(C)on1)OC(C)=O` [Compound 61, (3S,8R)-8-(5-methylisoxazole-3-carboxamido)heptadeca-1-en-4,6-diyn-3-yl acetate]: in series [1], the pIC50 was 7.11.

Take `C=C[C@@H](C#CC#C[C@@H](CCCCCCCCC)NC(=O)c1ccccn1)OC(C)=O` [Compound 62, (3S,8R)-8-(picolinamido)heptadeca-1-en-4,6-diyn-3-yl acetate]: the pIC50 in series [1] was 7.05.

Regarding `C=C[C@@H](C#CC#C[C@@H](CCCCCCCCC)NC(=O)c1cnccn1)OC(C)=O` [Compound 63, (3S,8R)-8-(pyrazine-2-carboxamido)heptadeca-1-en-4,6-diyn-3-yl acetate], in series [1], the negative logarithm of the IC50 (pIC50) is 7.38.

As to `C=C[C@@H](C#CC#C[C@@H](CCCCCCCCC)NC(=O)c1ccccc1Cl)OC(C)=O` [Compound 64, (3S,8R)-8-(2-chlorobenzamido)heptadeca-1-en-4,6-diyn-3-yl acetate], in series [1], the pIC50 was 6.96.

Take `C=C[C@@H](C#CC#C[C@@H](CCCCCCCCC)NC(=O)c1cccc(Br)c1)OC(C)=O` [Compound 65, (3S,8R)-8-(3-bromobenzamido)heptadeca-1-en-4,6-diyn-3-yl acetate]: the pIC50 in series [1] was 6.74.

Take `C=C[C@@H](C#CC#C[C@@H](CCCCCCCCC)NC(=O)c1cccc(C)c1)OC(C)=O` [Compound 66, (3S,8R)-8-(3-methylbenzamido)heptadeca-1-en-4,6-diyn-3-yl acetate]: the pIC50 in series [1] was 6.92.

On to `C=C[C@@H](C#CC#C[C@@H](CCCCCCCCC)NC(=O)c1ccc(F)cc1)OC(C)=O` [Compound 67, (3S,8R)-8-(4-fluorobenzamido)heptadeca-1-en-4,6-diyn-3-yl acetate], for which the negative-log IC50 (pIC50) in series [1] was 7.14.

Take `C=C[C@@H](C#CC#C[C@@H](CCCCCCCCC)NC(=O)c1cccc(C(F)(F)F)c1)OC(C)=O` [Compound 68, (3S,8R)-8-(3-(trifluoromethyl)benzamido)heptadeca-1-en-4,6-diyn-3-yl acetate]: the pIC50 in series [1] is 6.72.

For the compound `C=C[C@@H](C#CC#C[C@@H](CCCCCCCCC)NC(=O)c1ccco1)OC(C)=O` [Compound 69, (3S,8R)-8-(furan-2-carboxamido)heptadeca-1-en-4,6-diyn-3-yl acetate], in series [1], the pIC50 was 7.30.

Regarding `C=C[C@@H](C#CC#C[C@@H](CCCCCCCCC)NC(=O)c1cc(Cl)cc(Cl)c1)OC(C)=O` [Compound 70, (3S,8R)-8-(3,5-dichlorobenzamido)heptadeca-1-en-4,6-diyn-3-yl acetate], the pIC50 in series [1] is 6.60.

For `C=C[C@@H](C#CC#C[C@@H](CCCCCCCCC)N=C=S)OC(C)=O` [Compound 71, (3S,8R)-8-isothiocyanatoheptadeca-1-en-4,6-diyn-3-yl acetate], in series [1], the pIC50 is 4.66.

For `C=C[C@@H](C#CC#C[C@@H](CCCCCCCCC)NC(=O)CCCOCc1ccccc1)OC(C)=O` [Compound 72, (3S,8R)-8-(4-(benzyloxy)butanamido)heptadeca-1-en-4,6-diyn-3-yl acetate], in series [1], the pIC50 was 6.28.

On to `CCCCCCCCC[C@H](C#CC#C[C@@H](O)C1CC1)NCCCC` [Compound 74, (1S,6R)-6-(butylamino)-1-cyclopropylpentadeca-2,4-diyn-1-ol], for which, in series [1], the negative-log IC50 (pIC50) was 6.14.

On to `C/C=C/[C@H](O)C#CC#C[C@@H](CCCCCCCCC)NCCCC` [Compound 75, (4S,9R,E)-9-(butylamino)octadeca-2-en-5,7-diyn-4-ol], for which, in series [1], the negative logarithm of the IC50 (pIC50) was 7.51.

Turning to `CCCCCCCCC[C@H](C#CC#C[C@@H](O)c1ccccc1)NCCCC` [Compound 76, (1S,6R)-6-(butylamino)-1-phenylpentadeca-2,4-diyn-1-ol], in series [1], the pIC50 is 6.95.

As for `CCCCCCCCC[C@H](C#CC#C[C@@H](O)c1ccc(OCC)cc1)NCCCC` [Compound 77, (1S,6R)-6-(butylamino)-1-(4-ethoxyphenyl)pentadeca-2,4-diyn-1-ol], the pIC50 in series [1] is 6.35.

Consider `C=C[C@H](O)C#CC#C[C@@H](CCCCCCCCC)NCC` [Compound 78, (3S,8R)-8-(ethylamino)heptadeca-1-en-4,6-diyn-3-ol], for which the pIC50 in series [1] is 7.52.

In the case of `C=C[C@@H](C#CC#C[C@@H](CCCC1CCCCC1)NC(=O)c1ccccc1)OC(C)=O` [Compound 79, (3S,8R)-8-benzamido-11-cyclohexylundeca-1-en-4,6-diyn-3-yl acetate], in series [1], the pIC50 is 7.57.

As for `CCCCCCCCCCCCCCCCOP(=O)([O-])OCC[N+](C)(C)C` [Miltefosine, reference compound], the “LDU mean ± SD” value in series [2] (group mean, n=4) is reported as 87.0. In series [2] (infected BALB/c mice), the “% Reduction (Average) in liver parasitemia” value is 98% and 97.8%. For the same compound, the “# of amastigotes per 200 nuclei” value in series [2] (liver, individual mice) was 22 and 13 and 8 and 24. Further, the LDU in series [2] (total liver parasitemia, individual mice) is 109.6 and 67.7 and 35.9 and 134.9. Further, the Body weight in series [3] (10 mg/kg i.p., individual mice, Table 4) was 18.3 g and 18.0 g and 17.1 g and 20.0 g. Moreover, the “Mean body weight of mice Post-treatment” value in series [3] (post-treatment, 10 mg/kg i.p., group mean) is recorded as 18.4 g. In addition, the “Mean body weight of mice Pre-treatment” value in series [3] (pre-treatment (baseline), group mean) amounted to 18.4 g.
